The values that follow come from publication PMC4844700, “Rifampin phosphotransferase is an unusual antibiotic resistance kinase” (Nature Communications, 2016).

Data set [1] deals with T1, RPH-Lm (rifampin phosphotransferase) (Listeria monocytogenes, UniProt A0A0X1KHF9).
T1 construct: full-length from E. coli; crystals and SAXS: His6-tag removed by TEV (pMCSG53 for crystals); kinetics: pET19Tb:rph-Lm; monomer; ATP-grasp 1-314, RIF-BD 327-754, swivel 767-865, catalytic His825
The experiment in a line: X-ray crystallography. The note with it: crystallized with 5 mM RIF and 5 mM ATP; RIF-binding domain; 2.85 Å.

Data set [2] deals with T1, RPH-Lm (rifampin phosphotransferase). The experiment in a line: SAXS, ensemble optimization. The data set is classed as binding. The note with it: Mg2+; 20 mM Hepes pH 7.5, 100 mM KCl; 10 °C; 10-fold molar excess; non-hydrolysable ATP analogue.
Data set [3] has the same target. Description: X-ray crystallography (SAD). Particulars: Se-Met protein; 5 mM RIF; pH 6; RIF-binding domain; 2.70 Å.
Data set [4] relates to CO[C@H]1/C=C/O[C@@]2(C)Oc3c(C)c(O)c4c(O)c(c(/C=N/N5CCN(C)CC5)c(O)c4c3C2=O)NC(=O)/C(C)=C\C=C\[C@H](C)[C@H](O)[C@@H](C)[C@@H](O)[C@@H](C)[C@H](OC(C)=O)[C@@H]1C. Description: purified protein. The note with it: ATP at five times its Km, 50 mM Hepes pH 7.5, 5 mM MgCl2, 40 mM NH4Cl, 25 °C, 11.3 μM enzyme.

T1 sequence (A0A0X1KHF9 whole entry): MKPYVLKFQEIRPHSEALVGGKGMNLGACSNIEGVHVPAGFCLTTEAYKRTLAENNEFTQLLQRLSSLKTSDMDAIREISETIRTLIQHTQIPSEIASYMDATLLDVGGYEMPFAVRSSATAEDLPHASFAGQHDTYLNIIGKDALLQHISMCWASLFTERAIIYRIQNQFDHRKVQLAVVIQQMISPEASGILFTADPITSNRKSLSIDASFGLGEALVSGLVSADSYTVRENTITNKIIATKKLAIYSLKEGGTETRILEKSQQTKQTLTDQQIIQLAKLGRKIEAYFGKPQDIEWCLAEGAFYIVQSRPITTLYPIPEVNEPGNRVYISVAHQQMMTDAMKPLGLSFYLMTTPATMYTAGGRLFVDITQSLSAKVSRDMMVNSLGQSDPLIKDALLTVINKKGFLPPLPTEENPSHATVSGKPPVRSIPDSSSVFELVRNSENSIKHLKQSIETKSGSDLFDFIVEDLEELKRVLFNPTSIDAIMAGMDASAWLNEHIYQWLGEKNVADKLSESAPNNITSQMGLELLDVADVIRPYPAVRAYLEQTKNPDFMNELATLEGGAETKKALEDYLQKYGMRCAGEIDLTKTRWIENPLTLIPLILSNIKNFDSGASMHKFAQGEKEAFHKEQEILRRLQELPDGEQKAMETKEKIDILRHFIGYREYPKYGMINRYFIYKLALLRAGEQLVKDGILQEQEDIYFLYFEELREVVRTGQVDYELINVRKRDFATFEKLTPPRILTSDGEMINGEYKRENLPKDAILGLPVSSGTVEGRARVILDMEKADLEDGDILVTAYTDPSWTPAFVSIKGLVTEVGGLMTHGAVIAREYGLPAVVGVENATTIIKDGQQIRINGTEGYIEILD

For the compound `CO[C@H]1/C=C/O[C@@]2(C)Oc3c(C)c(O)c4c(O)c(c(/C=N/N5CCN(C)CC5)c(O)c4c3C2=O)NC(=O)/C(C)=C\C=C\[C@H](C)[C@H](OP(=O)(O)O)[C@@H](C)[C@@H](O)[C@@H](C)[C@H](OC(C)=O)[C@@H]1C` [RIF-P], the X-ray crystallography in data set [1] is reported as 5FBU (RPH-Lm·RIF-P).

`Nc1ncnc2c1ncn2[C@@H]1O[C@H](COP(=O)(O)CP(=O)(O)OP(=O)(O)O)[C@@H](O)[C@H]1O` [AMP-cPP]: the “SAXS, ensemble optimization” value in data set [2] is “RPH-Lm bound to either analogue showed an increase in the ATP-grasp engaged population”.

With `CO[C@H]1/C=C/O[C@@]2(C)Oc3c(C)c(O)c4c(O)c(c(/C=N/N5CCN(C)CC5)c(O)c4c3C2=O)NC(=O)/C(C)=C\C=C\[C@H](C)[C@H](O)[C@@H](C)[C@@H](O)[C@@H](C)[C@H](OC(C)=O)[C@@H]1C` [RIF], the “X-ray crystallography (SAD)” value in data set [3] was 5FBT (RPH-Lm·RIF).

Consider `Nc1ncnc2c1ncn2[C@@H]1O[C@H](COP(=O)(O)OP(=O)(O)NP(=O)(O)O)[C@@H](O)[C@H]1O` [AMP-PnP], for which the “SAXS, ensemble optimization” value in data set [2] was “RPH-Lm bound to either analogue showed an increase in the ATP-grasp engaged population”.

As for “RPH-Lm (rifampin phosphotransferase) (Listeria monocytogenes serotype 4b str. F2365)”, in data set [4], the Km was 0.57 ± 0.15 µM, the kcat worked out at 2.25 ± 0.17 s⁻¹ and the kcat/Km came out at 3.94e+06 M⁻¹ s⁻¹.

As a reminder, the Km is the substrate concentration at which the rate is half of its maximum. By kcat is commonly meant the number of substrate molecules converted per active site and unit of time at saturation. By kcat/Km is commonly meant the turnover number divided by the Michaelis constant.
